In patent US9834542B2, “LXR modulators” (BRISTOL-MYERS SQUIBB COMPANY, priority 2013, dated 2017):

Biological target: T1, LXRβ (Homo sapiens, UniProt P55055)
T1 construct: Co-transfection expression plasmids, comprising full-length LXRα (pCMX-h LXRα[…] or LXRβ (pCMX-hLXRβ)); expressed in transfected cells; host or cells: CV-1 African Green Monkey Kidney Cells
T1 sequence (P55055 1-460): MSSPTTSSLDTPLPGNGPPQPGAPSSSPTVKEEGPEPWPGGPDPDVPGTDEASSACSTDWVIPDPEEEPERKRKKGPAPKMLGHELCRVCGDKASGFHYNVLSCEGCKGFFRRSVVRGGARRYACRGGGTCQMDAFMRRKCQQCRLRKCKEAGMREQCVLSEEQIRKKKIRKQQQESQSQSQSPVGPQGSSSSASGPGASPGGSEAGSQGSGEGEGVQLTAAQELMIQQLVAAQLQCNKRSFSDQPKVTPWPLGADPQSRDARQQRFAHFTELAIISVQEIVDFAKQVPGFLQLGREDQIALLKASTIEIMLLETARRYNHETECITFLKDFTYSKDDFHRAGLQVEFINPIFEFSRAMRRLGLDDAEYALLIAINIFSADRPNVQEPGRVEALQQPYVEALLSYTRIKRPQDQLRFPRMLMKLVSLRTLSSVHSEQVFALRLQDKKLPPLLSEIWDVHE
T1 sequence (P19793 1-462 partner): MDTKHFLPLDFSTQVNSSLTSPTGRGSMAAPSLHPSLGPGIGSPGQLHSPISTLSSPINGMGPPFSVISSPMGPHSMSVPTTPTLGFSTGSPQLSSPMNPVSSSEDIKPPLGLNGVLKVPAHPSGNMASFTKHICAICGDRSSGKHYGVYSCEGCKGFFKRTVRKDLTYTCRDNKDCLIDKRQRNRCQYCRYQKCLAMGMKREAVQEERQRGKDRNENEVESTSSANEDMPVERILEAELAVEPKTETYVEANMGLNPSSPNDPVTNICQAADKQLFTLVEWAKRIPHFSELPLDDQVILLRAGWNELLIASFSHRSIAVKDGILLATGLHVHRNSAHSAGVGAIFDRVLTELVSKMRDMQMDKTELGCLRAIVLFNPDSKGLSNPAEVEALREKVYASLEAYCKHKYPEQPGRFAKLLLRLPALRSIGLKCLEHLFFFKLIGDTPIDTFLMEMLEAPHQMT
Assay: Co-transfection assay (LXRE luciferase reporter), LXRβ
Type: cell-based
Details: for EC50: CV-1 cells transfected with pCMX-hLXRβ and LXREx1-Tk-Luciferase, 20 hours incubation; for Emax: LXRβ co-transfection, relative to high control 1-(2,4-difluorobenzyl)-2-oxo-6-(4-phenoxyphenyl)-4-(trifluoromethyl)-1,2-dihydropyridine-3-carbonitrile, read-out: % Efficacy
Procedure, shortened: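 Cell-based LXRβ agonism measured as LXRE-luciferase induction in transiently transfected CV-1 cells after 20 h treatment. Potency is the curve-fit EC50; efficacy is expressed as percent of a full-agonist control's maximal response.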

`Cc1nc(C(F)F)cn1-c1ccc(-c2cccc(S(C)(=O)=O)c2)cc1-c1cnnn1Cc1ccc(Cl)cc1` [Example 245, 1-(4-chlorobenzyl)-5-(4-(4-(difluoromethyl)-2-methyl-1H-imidazol-1-yl)-3′-(methylsulfonyl)-[1,1′-biphenyl]-3-yl)-1H-1,2,3-triazole] showed an EC50 of 216 nM and an Emax of 102%.

Work on `CS(=O)(=O)c1cccc(-c2cc(F)c(-n3cnc(C(F)(F)F)c3)c(-n3nncc3-c3ccc(OC(F)(F)F)cc3)c2)c1` [Example 188, 1-{5-fluoro-3′-(methylsulfonyl)-4-[4-(trifluoromethyl)-1H-imidazol-1-yl]biphenyl-3-yl}-5-{4-[(trifluoromethyl)oxy]phenyl}-1H-1,2,3-triazole] yielded an EC50 of 1750 nM and an Emax of 89%.

`CCc1nc(-c2cc(-c3ccc(CO)c(S(C)(=O)=O)c3)ccc2-n2cc(C(F)(F)F)nc2C)c(-c2ccc(OC(F)(F)F)cc2)o1` [Example 519, (3′-(2-ethyl-5-(4-(trifluoromethoxy)phenyl)oxazol-4-yl)-4′-(2-methyl-4-(trifluoromethyl)-1H-imidazol-1-yl)-3-(methylsulfonyl)-[1,1′-biphenyl]-4-yl)methanol] was tested, and the EC50 was 140 nM and the Emax was 100%.

`Cc1nc(C(F)(F)F)cn1-c1ccc(-c2cc(Cl)c(CO)c(S(C)(=O)=O)c2)cc1-n1nncc1-c1ccc(Cl)cc1Cl` [Example 18, {3-chloro-3′-[5-(2,4-dichlorophenyl)-1H-1,2,3-triazol-1-yl]-5-(methylsulfonyl)-4′-[2-methyl-4-(trifluoromethyl)-1H-imidazol-1-yl]biphenyl-4-yl}methanol] was tested, and the EC50 was 283 nM and the Emax was 62%.

`Cc1nc(-c2cc(-c3cc(F)c(CO)c(S(C)(=O)=O)c3)ccc2-n2cc(C(F)(F)F)nc2C)c(-c2ccc(Cl)cc2Cl)o1` [Example 488, (3′-(5-(2,4-dichlorophenyl)-2-methyloxazol-4-yl)-3-fluoro-4′-(2-methyl-4-(trifluoromethyl)-1H-imidazol-1-yl)-5-(methylsulfonyl)biphenyl-4-yl)methanol] was tested, and the EC50 was 17 nM and the Emax was 66%.

`Cc1nc(C(F)(F)F)cn1-c1ccc(-c2cccc(S(C)(=O)=O)c2)cc1-n1nncc1-c1ccc(Cl)c(Cl)c1` [Example 75, 5-(3,4-dichlorophenyl)-1-{3′-(methylsulfonyl)-4-[2-methyl-4-(trifluoromethyl)-1H-imidazol-1-yl]biphenyl-3-yl}-1H-1,2,3-triazole] gave an EC50 of 127 nM and an Emax of 97%.

Work on `Cc1nc(C(F)(F)F)cn1-c1ccc(-c2cccc(S(C)(=O)=O)c2)cc1-n1nncc1-c1ccc2occc2c1` [Example 86, 5-(1-benzofuran-5-yl)-1-{3′-(methylsulfonyl)-4-[2-methyl-4-(trifluoromethyl)-1H-imidazol-1-yl]biphenyl-3-yl}-1H-1,2,3-triazole] yielded an EC50 of 583 nM and an Emax of 77%.

With `Cc1nc(-c2cc(-c3cc(F)c(CO)c(S(C)(=O)=O)c3)ccc2-n2cc(C(F)(F)F)nc2C)c(-c2ccc(OC(F)(F)F)cc2)o1` [Example 373, [3-fluoro-5-(methylsulfonyl)-4′-[2-methyl-4-(trifluoromethyl)-1H-imidazol-1-yl]-3′-(2-methyl-5-{4-[(trifluoromethyl)oxy]phenyl}-1,3-oxazol-4-yl)biphenyl-4-yl]methanol] the EC50 was 40 nM and the Emax was 97%.

`Cc1nc(C(F)(F)F)cn1-c1ccc(-c2cccc(S(C)(=O)=O)c2)cc1-c1nc(C2CC2)cn1-c1ccc2c(c1)OC(F)(F)O2` [Example 643, 4-cyclopropyl-1-(2,2-difluorobenzo[d][1,3]dioxol-5-yl)-2-(4-(2-methyl-4-(trifluoromethyl)-1H-imidazol-1-yl)-3′-(methylsulfonyl)biphenyl-3-yl)-1H-imidazole] gave an EC50 of 341 nM and an Emax of 84%.

`CNS(=O)(=O)c1cccc(-c2ccc(-n3cc(C(F)F)nc3C)c(-n3nncc3-c3ccc(OC(F)(F)F)cc3)c2)c1` [Example 154, 4′-[4-(difluoromethyl)-2-methyl-1H-imidazol-1-yl]-N-methyl-3′-(5-{4-[(trifluoromethyl)oxy]phenyl}-1H-1,2,3-triazol-1-yl)biphenyl-3-sulfonamide] gave an EC50 of 527 nM and an Emax of 91%.

In the case of `Cc1nc(-c2cc(-c3cccc(S(C)(=O)=O)c3)ccc2-n2cc(C(F)(F)F)nc2C)c(-c2ccc(OCC3CC3)c(F)c2)o1` [Example 404, 5-(4-(cyclopropylmethoxy)-3-fluorophenyl)-2-methyl-4-(4-(2-methyl-4-(trifluoromethyl)-1H-imidazol-1-yl)-3′-(methylsulfonyl)biphenyl-3-yl)oxazole], the EC50 is reported as 159 nM and the Emax is reported as 69%.

For `CCS(=O)(=O)c1cccc(-c2ccc(-n3cc(C(C)(F)F)nc3C)c(-n3nncc3-c3ccc(OC(F)(F)F)cc3)c2)c1` [Example 177, 1-{4-[4-(1,1-difluoroethyl)-2-methyl-1H-imidazol-1-yl]-3′-(ethylsulfonyl)biphenyl-3-yl}-5-{4-[(trifluoromethyl)oxy]phenyl}-1H-1,2,3-triazole], the EC50 was 894 nM and the Emax was 78%.

For `Cc1nc(C(F)(F)F)cn1-c1ccc(-c2cc(F)c(CO)c(S(C)(=O)=O)c2)cc1-c1ncoc1-c1ccc(Cl)cc1` [Example 365, {3′-[5-(4-chlorophenyl)-1,3-oxazol-4-yl]-3-fluoro-5-(methylsulfonyl)-4′-[2-methyl-4-(trifluoromethyl)-1H-imidazol-1-yl]biphenyl-4-yl}methanol], the EC50 was 307 nM and the Emax was 81%.

`CCOc1ncc(-c2oc(C)nc2-c2cc(-c3ccc(C)c(S(C)(=O)=O)c3)ccc2-n2cc(C(F)(F)F)nc2C)cc1F` [Example 473, 5-(6-ethoxy-5-fluoropyridn-3-yl)-2-methyl-4-(4′-methyl-4-(2-methyl-4-(trifluoromethyl)-1H-imidazol-1-yl)-3′-(methylsulfonyl)biphenyl-3-yl)oxazole] was tested, and the EC50 was 280 nM and the Emax was 50%.

`Cc1nc(-c2cc(-c3cc(F)c(CO)c(S(C)(=O)=O)c3)ccc2-n2cc(C(F)(F)F)nc2C)c(-c2ccc(OC(F)F)c(F)c2)o1` [Example 377] showed an EC50 of 48 nM and an Emax of 77%.

Compound `Cc1nc(-c2cc(-c3cc(F)c(CO)c(S(C)(=O)=O)c3)ccc2-n2cc(C(F)(F)F)nc2C)c(-c2ccccc2OC(F)F)o1` [Example 548, (3′-(5-(2-(difluoromethoxy)phenyl)-2-methyloxazol-4-yl)-3-fluoro-4′-(2-methyl-4-(trifluoromethyl)-1H-imidazol-1-yl)-5-(methylsulfonyl)-[1,1′-biphenyl]-4-yl)methanol] has an EC50 of 84 nM and an Emax of 43%.

Compound `COc1ccc(-c2cnnn2-c2cc(-c3cccc(S(C)(=O)=O)c3)ccc2-n2cc(C(F)(F)F)nc2C)cc1` [Example 26, 5-[4-(methyloxy)phenyl]-1-{3′-(methylsulfonyl)-4-[2-methyl-4-(trifluoromethyl)-1H-imidazol-1-yl]biphenyl-3-yl}-1H-1,2,3-triazole] has an EC50 of 541 nM and an Emax of 93%.

In the case of `Cc1nc(C(F)(F)F)cn1-c1ccc(-c2cccc(S(C)(=O)=O)c2)cc1-n1nncc1CCc1ccc(Cl)cc1` [Example 129, 5-[2-(4-chlorophenyl)ethyl]-1-{3′-(methylsulfonyl)-4-[2-methyl-4-(trifluoromethyl)-1H-imidazol-1-yl]biphenyl-3-yl}-1H-1,2,3-triazole], the EC50 is reported as 1500 nM and the Emax is reported as 65%.

`Cc1nc(C(F)(F)F)cn1-c1c(F)cc(-c2ccc(CO)c(S(C)(=O)=O)c2)cc1-n1nncc1-c1ccc(Cl)cc1` [Example 210, {3′-[5-(4-chlorophenyl)-1H-1,2,3-triazol-1-yl]-5′-fluoro-3-(methylsulfonyl)-4′-[2-methyl-4-(trifluoromethyl)-1H-imidazol-1-yl]biphenyl-4-yl}methanol] showed an EC50 of 394 nM and an Emax of 78%.

`Cc1nc(C(F)(F)F)cn1-c1ccc(-c2ccc(CO)c(S(C)(=O)=O)c2)cc1-n1nncc1-c1ccc(OC(F)(F)F)cc1` [Example 90, [3-(methylsulfonyl)-4′-[2-methyl-4-(trifluoromethyl)-1H-imidazol-1-yl]-3′-(5-{4-[(trifluoromethyl)oxy]phenyl}-1H-1,2,3-triazol-1-yl)biphenyl-4-yl]methanol] gave an EC50 of 176 nM and an Emax of 105%.
